The record followed here is article PMC9519869, “Synthesis, biological evaluation, and molecular modeling studies of new benzoxazole derivatives as PARP-2 inhibitors targeting breast cancer” (Scientific Reports, 2022).

One data set has as its system MDA-MB-231. In words: In vitro cytotoxicity screening, MTT assay. As to conditions: Homo sapiens, MDA-MB-231, 24 h, read-out: In vitro Cytotoxicity (IC50, µM) MDA-MB-231.
A further data set concerns the target T1, PARP-2 enzyme (Homo sapiens, UniProt Q9UGN5).
T1 construct: purchased BPS Bioscience 80,581
In words: Poly (ADP-ribose) polymerase 2 (PARP-2) inhibition assay (colorimetric kit). The format is biochemical. As to conditions: for IC50: in vitro enzyme assay. Here is the method: Results were expressed as IC50 values (Table 2).
The PARP-2 inhibitory activity of the test compounds was assayed using PARP-2 Colorimetric Activity Assay Kit (BPS Bioscience, catalog 80,581, San Diego, CA, USA) following the manufacturer’s protocol. Briefly, histone protein mixture was coated on a 96-well microtiter plate and incubated at 4 °C overnight, washed with phosphate-buffered saline with tween-20 (PBST) three times then, the wells were blocked by adding blocking buffer 3 and incubated at room temperature for 60–90 min. After that, the plate was washed with PBST buffer three times. The master mixture which contains the PARP buffer, PARP assay mixture, activated DNA and distilled water was added to each well then, the inhibitor solution (test compound) was added. The reaction was initiated by adding PARP-2 enzyme to the wells and the plate was incubated for 1 h at room temperature. After 1 h, the reaction mixture was discarded, and the plate was washed with PBST buffer three times. Finally, the plate was treated with Streptavidin–Horseradish Peroxidase (HRP) and incubated for 30 min at room temperature and then washed with PBST buffer. The colorimetric HRP substrate was added to each well and incubated at room temperature until the positive control well developed blue color. Sulphuric acid was added to each well after the blue color development. The absorbance was read at 450 nm using UV/Vis spectrophotometer microplate reader.
Suppl. S2. In vitro PARP-2 enzyme inhibition assay
Researcher : Dr. Nadeen Ghobashy email:elghobashynadeen@gmail.com mob.01008873340
Reader : ROBONIK P2000 Eliza Reader wl 450 nm

T1 sequence (Q9UGN5 whole entry): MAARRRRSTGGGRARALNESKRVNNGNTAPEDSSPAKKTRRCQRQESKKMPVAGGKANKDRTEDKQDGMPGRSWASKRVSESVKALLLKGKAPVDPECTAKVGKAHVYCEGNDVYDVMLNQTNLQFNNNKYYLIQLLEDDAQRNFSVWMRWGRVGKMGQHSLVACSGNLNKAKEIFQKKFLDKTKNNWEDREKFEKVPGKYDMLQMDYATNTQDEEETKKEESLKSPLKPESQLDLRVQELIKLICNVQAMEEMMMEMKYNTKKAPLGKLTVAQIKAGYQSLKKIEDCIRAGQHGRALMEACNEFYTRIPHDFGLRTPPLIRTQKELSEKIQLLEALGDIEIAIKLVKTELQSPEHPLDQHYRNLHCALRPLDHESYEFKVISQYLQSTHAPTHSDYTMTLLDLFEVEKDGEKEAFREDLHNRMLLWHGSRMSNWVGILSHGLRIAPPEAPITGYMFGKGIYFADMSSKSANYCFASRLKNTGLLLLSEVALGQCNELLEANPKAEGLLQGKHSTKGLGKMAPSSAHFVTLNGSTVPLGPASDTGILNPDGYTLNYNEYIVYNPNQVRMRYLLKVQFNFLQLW
From the text for MDA-MB-231: Two human breast cancer cell lines, namely, MDA-MB-231 and MCF-7 were obtained from American Type Culture Collection (ATCC) via a holding company for biological products and vaccines (VACSERA), Cairo, Egypt. […] The reagents used were RPMI-1640 medium, MTT, DMSO (sigma co., St. Louis, USA), and Fetal bovine serum (GIBCO, UK). […] MTT is a colorimetric assay based on the conversion of the yellow tetrazolium bromide (MTT) to a purple formazan derivative by mitochondrial succinate dehydrogenase in viable cells. Cell lines were cultured in RPMI-1640 medium with 10% foetal bovine serum. Antibiotics added were 100 units/ml penicillin and 100 µg/ml streptomycin maintained at 37 °C in a 5% CO2 incubator. The cell lines were seeded at a density of approximately 1.0 × 10 ^4 cells/well in a 96-well plate at 37 °C for 48 h under 5% CO2. Different concentrations of compounds were added and incubated for 24 h. After 24 h of drug treatment, 20 µl of MTT staining solution at 5 mg/ml was added to each well and incubated for 4 h at 37 °C. After 4 h, 100 µl of dimethyl sulfoxide (DMSO) were added into each well to dissolve the purple formazan crystals formed. The absorbance was recorded at 570 nm using a plate reader (EXL 800, USA). The relative cell viability in percentage was calculated as (A570 of treated samples/A570 of untreated sample) X 100 [22],[23].

For the compound `CN1CCN(CC(=O)Nc2ccc(-c3nc4cc(Cl)ccc4o3)cc2)CC1` [Compound 8, N-(4-(5-chlorobenzoxazol-2-yl)phenyl)-2-(4-methylpiperazin-1-yl)acetamide], the melting point was 179 to 181 °C. Besides, in the data set with MDA-MB-231, the IC50 was 30.9 ± 2.3 µM.

Regarding `Nc1ccc(-c2nc3cc(Cl)ccc3o2)cc1` [Compound 3, 4-(5-chlorobenzoxazol-2-yl)aniline], the IC50 with MDA-MB-231 was 24 ± 1.8 µM.

Compound `CC(=O)c1nnn(-c2ccc(-c3nc4cc(Cl)ccc4o3)cc2)c1C` [Compound 30, 1-(1-(4-(5-chlorobenzoxazol-2-yl)phenyl)-5-methyl-1H-1,2,3-triazol-4-yl)ethan-1-one] returned a melting point of 212 to 214 °C. The IC50 with MDA-MB-231 amounted to 73.9 ± 3.6 µM.

Turning to `CCN(CC)CC(=O)Nc1ccc(-c2nc3cc(Cl)ccc3o2)cc1` [Compound 26, N-(4-(5-chlorobenzoxazol-2-yl)phenyl)-2-(diethylamino)acetamide], the melting point fell in the range of 133 to 135 °C. Besides, the IC50 in the data set with MDA-MB-231 was found to be 18.6 ± 1.3 µM. In addition, the “%inh of PARP-2 (Table S2 raw data)” value on PARP-2 enzyme (conc 0.01 (ng/ml)) amounted to 21.36%. Besides, the “%inh of PARP-2 (Table S2 raw data)” value on PARP-2 enzyme (conc 0.1 (ng/ml)) worked out at 38.75%. The “%inh of PARP-2 (Table S2 raw data)” value at PARP-2 enzyme (conc 1 (ng/ml)) turned out to be 55.9%. The “%inh of PARP-2 (Table S2 raw data)” value on PARP-2 enzyme (conc 10 (ng/ml)) is given as 86.92%. Further, the IC50 at PARP-2 enzyme worked out at 0.292 ± 0.016 µM.

`O=C(CCCl)Nc1ccc(-c2nc3cc(Cl)ccc3o2)cc1` [Compound 5, 3-chloro-N-(4-(5-chlorobenzoxazol-2-yl)phenyl)propanamide] returned a melting point of 210 to 212 °C. Moreover, in the data set with MDA-MB-231, the 50% inhibitory concentration (IC50) is 55.7 ± 3.2 µM.

Take `O=C(CCN1CCN(Cc2ccccc2)CC1)Nc1ccc(-c2nc3cc(Cl)ccc3o2)cc1` [Compound 15, 3-(4-benzylpiperazin-1-yl)-N-(4-(5-chlorobenzoxazol-2-yl)phenyl)propanamide]: the melting point was 182 to 184 °C. The IC50 with MDA-MB-231 is 35.3 ± 2.5 µM.

`CCOC(=O)c1nnn(-c2ccc(-c3nc4cc(Cl)ccc4o3)cc2)c1C` [Compound 29, Ethyl 1-(4-(5-chlorobenzoxazol-2-yl)phenyl)-5-methyl-1H-1,2,3-triazole-4-carboxylate] registered a melting point of 251 to 253 °C. The IC50 with MDA-MB-231 was found to be 76 ± 3.8 µM.

`CCN1CCN(CC(=O)Nc2ccc(-c3nc4cc(Cl)ccc4o3)cc2)CC1` [Compound 9, N-(4-(5-chlorobenzoxazol-2-yl)phenyl)-2-(4-ethylpiperazin-1-yl)acetamide]: the melting point fell in the range of 153 to 155 °C. Moreover, in the data set on MDA-MB-231, the IC50 is 39.5 ± 2.6 µM.

In turn, `O=C(CCN1CCN(c2ccccc2)CC1)Nc1ccc(-c2nc3cc(Cl)ccc3o2)cc1` [Compound 18, N-(4-(5-chlorobenzoxazol-2-yl)phenyl)-3-(4-phenylpiperazin-1-yl)propanamide] had a melting point of 239 to 241 °C. For the same compound, in the data set on MDA-MB-231, the IC50 stood at 19.2 ± 1.6 µM.

As for `O=C(CCl)Nc1ccc(-c2nc3cc(Cl)ccc3o2)cc1` [Compound 4, 2-chloro-N-(4-(5-chlorobenzoxazol-2-yl)phenyl)acetamide], the melting point is 218 to 220 °C. Also, the IC50 in the data set with MDA-MB-231 came to 43.2 ± 2.7 µM.

Take `O=C(CCNCCCc1ccccc1)Nc1ccc(-c2nc3cc(Cl)ccc3o2)cc1` [Compound 25, N-(4-(5-chlorobenzoxazol-2-yl)phenyl)-3-((3-phenylpropyl)amino)propanamide]: the melting point is 87 to 89 °C. Further, the IC50 in the data set with MDA-MB-231 was found to be 15.6 ± 1.2 µM. The “%inh of PARP-2 (Table S2 raw data)” value at PARP-2 enzyme (conc 0.01 (ng/ml)) stood at 36.11%. The “%inh of PARP-2 (Table S2 raw data)” value on PARP-2 enzyme (conc 0.1 (ng/ml)) is recorded as 47.92%. The “%inh of PARP-2 (Table S2 raw data)” value on PARP-2 enzyme (conc 1 (ng/ml)) amounted to 73.45%. Besides, the “%inh of PARP-2 (Table S2 raw data)” value on PARP-2 enzyme (conc 10 (ng/ml)) is recorded as 88.59%. This compound displayed an IC50 against PARP-2 enzyme of 0.074 ± 0.004 µM.

With `[N-]=[N+]=Nc1ccc(-c2nc3cc(Cl)ccc3o2)cc1` [Compound 28, 2-(4-azidophenyl)-5-chlorobenzoxazole], the melting point lay within 167 to 169 °C. The IC50 in the data set with MDA-MB-231 is greater than 100 µM.

`COc1ccccc1N1CCN(CCC(=O)Nc2ccc(-c3nc4cc(Cl)ccc4o3)cc2)CC1` [Compound 19, N-(4-(5-chlorobenzoxazol-2-yl)phenyl)-3-(4-(2-methoxyphenyl)piperazin-1-yl)propanamide] showed a melting point of 211 to 213 °C. For the same compound, the IC50 in the data set on MDA-MB-231 turned out to be 22.5 ± 1.9 µM.

Consider `O=C(CNCCc1ccccc1)Nc1ccc(-c2nc3cc(Cl)ccc3o2)cc1` [Compound 21, N-(4-(5-chlorobenzoxazol-2-yl)phenyl)-2-(phenethylamino)acetamide], for which the melting point lay in the range of 129 to 131 °C. The IC50 with MDA-MB-231 was 12.2 ± 1 µM. Further, the “%inh of PARP-2 (Table S2 raw data)” value at PARP-2 enzyme (conc 0.01 (ng/ml)) came out at 20.88%. The “%inh of PARP-2 (Table S2 raw data)” value on PARP-2 enzyme (conc 0.1 (ng/ml)) was 36.15%. In addition, on PARP-2 enzyme (conc 1 (ng/ml)), the “%inh of PARP-2 (Table S2 raw data)” value is 52.41%. Further, the “%inh of PARP-2 (Table S2 raw data)” value on PARP-2 enzyme (conc 10 (ng/ml)) is 81.94%. In addition, the half-maximal inhibitory concentration (IC50) against PARP-2 enzyme was determined as 0.406 ± 0.022 µM.

In the case of `O=C(CCNCc1ccccc1)Nc1ccc(-c2nc3cc(Cl)ccc3o2)cc1` [Compound 23, 3-(benzylamino)-N-(4-(5-chlorobenzoxazol-2-yl)phenyl)propanamide], the melting point lay in the range of 109 to 111 °C. Also, the IC50 in the data set with MDA-MB-231 was 62.1 ± 3.4 µM.

For `O=C(CNCc1ccccc1)Nc1ccc(-c2nc3cc(Cl)ccc3o2)cc1` [Compound 20, 2-(benzylamino)-N-(4-(5-chlorobenzoxazol-2-yl)phenyl)acetamide], the melting point was in the range of 158 to 160 °C. Also, the IC50 with MDA-MB-231 was found to be 47.6 ± 2.8 µM.

On to `O=C(CN1CCN(c2ccccc2)CC1)Nc1ccc(-c2nc3cc(Cl)ccc3o2)cc1` [Compound 16, N-(4-(5-chlorobenzoxazol-2-yl)phenyl)-2-(4-phenylpiperazin-1-yl)acetamide], for which the melting point fell in the range of 231 to 233 °C. Moreover, in the data set on MDA-MB-231, the IC50 was 78.8 ± 3.8 µM.

In turn, `O=C(CN1CCN(Cc2ccccc2)CC1)Nc1ccc(-c2nc3cc(Cl)ccc3o2)cc1` [Compound 10, 2-(4-benzylpiperazin-1-yl)-N-(4-(5-chlorobenzoxazol-2-yl)phenyl)acetamide] came in with a melting point of 195 to 197 °C. Also, the IC50 in the data set on MDA-MB-231 stood at 71.7 ± 3.5 µM.

Consider `CNC(=O)c1cc(Oc2ccc(NC(=O)Nc3ccc(Cl)c(C(F)(F)F)c3)cc2)ccn1` [Sorafenib, reference compound], for which, in the data set on MDA-MB-231, the IC50 amounted to 7.47 ± 0.3 µM.

Take `O=C(CN1CCCCC1)Nc1ccc(-c2nc3cc(Cl)ccc3o2)cc1` [Compound 6, N-(4-(5-chlorobenzoxazol-2-yl)phenyl)-2-(piperidin-1-yl)acetamide]: the melting point lay in the range of 180 to 182 °C. Also, the concentration for half-maximal inhibition (IC50) in the data set with MDA-MB-231 is 42.5 ± 2.8 µM.

`O=C(CN1CCOCC1)Nc1ccc(-c2nc3cc(Cl)ccc3o2)cc1` [Compound 7, N-(4-(5-chlorobenzoxazol-2-yl)phenyl)-2-morpholinoacetamide] had a melting point of 178 to 180 °C. Besides, in the data set with MDA-MB-231, the IC50 was 51.6 ± 3 µM.

Compound `COc1ccccc1N1CCN(CC(=O)Nc2ccc(-c3nc4cc(Cl)ccc4o3)cc2)CC1` [Compound 17, N-(4-(5-chlorobenzoxazol-2-yl)phenyl)-2-(4-(2-methoxyphenyl)piperazin-1-yl)acetamide] registered a melting point of 218 to 220 °C. Also, in the data set with MDA-MB-231, the IC50 stood at 48 ± 2.9 µM.

`O=C(CCNCCc1ccccc1)Nc1ccc(-c2nc3cc(Cl)ccc3o2)cc1` [Compound 24, N-(4-(5-chlorobenzoxazol-2-yl)phenyl)-3-(phenethylamino)propanamide] gave a melting point of 73 to 75 °C. Also, the IC50 in the data set with MDA-MB-231 was 26.5 ± 2.1 µM.

In general, melting point refers to the temperature of the solid-liquid transition. Usually IC50 stands for the point on the concentration scale where inhibition reaches its midpoint.
